Measurements from US9180115B2, “Cyclohexylamines” (Asana Biosciences, LLC, priority 2011, dated 2015).

System: sodium channel response in hTRPV1-N1E115 cells
Assay: FLIPR membrane potential assay of sodium channel response in hTRPV1-N1E115 cells with or without heat (47° C.) activation
Assay type: cell-based
Conditions: for hTRPV1-N1E Nav 0.1 mM (% inhibition) 25° C. / hTRPV1-N1E Nav 1 mM (% inhibition) 25° C.: 25° C. (no heat activation); for IC50: 47° C., read-out: hTRPV1-N1E IC50 (μM) 47° C.; for hTRPV1-N1E Nav 0.1 mM (% inhibition) 47° C. / hTRPV1-N1E Nav 1 mM (% inhibition) 47° C.: 47° C. (heat activated)
Excerpt: In one embodiment, a modified FLIPR® (Fluorometric Imaging Plate Reader) based assay system was developed which is capable of discriminating between non-specific versus hTRPV1-mediated entry of test compounds. Advantageously, the assay system utilizes heat activated opening of hTRPV1 channels followed by an assessment of internal sodium channel block. The assay allows a permanently charged compound to selectively enter through opened hTRPV1 channels and that compound's potency in inhibiting sodium channels from the cytoplasm side of the same cell can be assessed and quantified.
The test compounds are diluted in the Assay Buffer and added to each well of a specific 384-well ‘compound plate’, which serves as a source plate for compound addition using the FLIPR® platform. The concentration of compounds in the compound-plate was adjusted to achieve the desired final concentration when added to the cells in the ‘cell-plate’. After completion of the dye incubation period, the dye loaded cell-plates and the compound source plates are inserted into the FLIPR® Tetra device with a 384 FLIPR® tip box (Molecular Devices, Inc.) according to manufacturer's instructions. The compounds are robotically added to the dye loaded cell-plates using software integral to the FLIPR® Tetra instrument.
Immediately following compound addition, hTRPV1 is activated, in one of the duplicate cell plates, by heating. Specifically, entire multi-well plate containing the compound-cells mixture is incubated at 47° C. for 10 minutes, after which they are returned to room temperature (about 25° C.) for a further 30 minutes. Heat activation of hTRPV1 was omitted from the replicate cell plate which was simply maintained at room temperature for the entire 40 minutes.
A membrane potential response is elicited in the dye- and compound-loaded cells by the addition of veratridine which is a known sodium channel ‘agonist’. As illustrated in an example herein, an agonist plate containing veratridine (Sigma) is prepared in advance and is inserted into suitable devices such as, e.g., the FLIPR® TETRA device for a “2nd addition” as instructed by the manufacturer. The concentration of veratridine in the ‘agonist plate’ was adjusted to achieve a final concentration of 100 μM when added to the cells in the cell-plate. Final concentrations of veratridine greater or lesser than 100 μM may also be used but the signal measured by the FLIPR® TETRA device or another suitable device may vary accordingly.
The exposure of the cells in the cell-plate to veratridine induces sodium channels in the cells to open and the resulting ion flux produces a membrane potential depolarization that is detected as a fluorescence signal by the FLIPR® Tetra Device. The activity of test compounds is determined by their ability to attenuate the veratridine-induced fluorescence signal, the most promising compounds are those that show an enhanced activity in the heat-activated cell plate over the non-heat-activated cell plate. This differential activity reflects enhanced compound uptake via the heat activated and open hTRPV1 channels and rests on the fact that sodium channel block requires test compounds to act from the cytoplasmic side of the cell membrane.
In vitro assays were developed for assessing the inhibition of sodium channel response with compounds following stimulation by heat (47° C.) in cells expressing hTRPV1.
(v) Membrane potential Assay to Assess Sodium Channel Function in hTRPV1-Expressing Cells • Cells were plated at 5000 per 50 μL [DMEM+10% FBS+300 μg/mL H\hygromycin] per well, in a 384 clear bottom poly-D-lysine coated plate and incubated at 37° C. and 5% CO2 for 48 hours. On the day of the assay, media were discarded gently and 30 μL of the dye [FMP blue dye was prepared in assay buffer] per well was added and dye-loading was allowed to proceed for 20 min at room temperature. […]

SMILES | IC50 [µM] | hTRPV1-N1E Nav 0.1 mM (% inhibition) 25° C. | hTRPV1-N1E Nav 1 mM (% inhibition) 25° C. | hTRPV1-N1E Nav 0.1 mM (% inhibition) 47° C. | hTRPV1-N1E Nav 1 mM (% inhibition) 47° C.
Cc1cc(C)c(C(=O)O[C@H](C)C[N+](C)(C)C2CCCCC2)c(C)c1.[I-] [Example 25, (R)-N,N-Dimethyl-N-[2-((2,4,6-trimethylbenzoyl)oxy)propyl] cyclohexanaminium iodide] | 10 to 100 | 48 (N = 4) % | 89 (N = 4) % | – | –
CC(C[N+](C)(C)C1CCCCC1)OC(=O)c1cccc(C(C)C)c1.[I-] (stereo not drawn) [Example 26, N-[2-((3-Isopropylbenzoyl)oxy)propyl]-N,N-dimethylcyclo-hexanaminium iodide] | 10 to 100 | 4 (N = 4) % | 57 (N = 4) % | 88 (N = 4) % | 89 (N = 4) %
CC(C[N+](C)(C)C1CCCCC1)OC(=O)c1c(Cl)cccc1Cl.[I-] (stereo not drawn) [Example 27, N-[2-((2,6-Dichlorobenzoyl)oxy)propyl]-N,N-dimethylcyclo-hexanaminium iodide] | 100 to 1000 | 23 (N = 4) % | 74 (N = 4) % | 73 (N = 4) % | 85 (N = 4) %
Cc1cc(C)c(C(=O)OC(C)C[N+](C)(C)C2CCOCC2)c(C)c1.[I-] (stereo not drawn) [Example 28, N,N-Dimethyl-N-[2-((2,4,6-trimethylbenzoyl)oxy)propyl]tetrahydro-2H-pyran-4-aminium iodide] | – | 0 (N = 4) % | 5 (N = 4) % | 32 (N = 4) % | 58 (N = 4) %
CC(C[N+](C)(C)C1CCCCC1)OC(=O)c1cccc(Cl)c1Cl.[I-] (stereo not drawn) [Example 29, N-[2-((2,3-Dichlorobenzoyl)oxy)propyl]-N,N-dimethyl-cyclohexanaminium iodide] | 10 to 100 | 36 (N = 4) % | 50 (N = 4) % | 52 (N = 4) % | 61 (N = 4) %
CC(C[N+](C)(C)C1CCCCC1)OC(=O)c1cccs1.[I-] (stereo not drawn) [Example 32, N,N-Dimethyl-N-[2-((thiophene-2-carbonyl)oxy)propyl] cyclohexanaminium iodide] | – | 4 (N = 4) % | 1 (N = 4) % | 48 (N = 4) % | 54 (N = 4) %
CC(C[N+](C)(C)C1CCCCC1)OC(=O)c1ccsc1.[I-] (stereo not drawn) [Example 33, N,N-Dimethyl-N-[2-((thiophene-3-carbonyl)oxy)propyl] cyclohexanaminium iodide] | – | 3 (N = 4) % | 23 (N = 4) % | 36 (N = 4) % | 57 (N = 4) %
CC(C[N+](C)(C)C1CCCCC1)OC(=O)c1cccn1C.[I-] (stereo not drawn) [Example 34, N,N-Dimethyl-N-[2-((1-methyl-1H-pyrrole-2-carbonyl)oxy)propyl] cyclohexanaminium iodide] | – | 35 (N = 4) % | 35 (N = 4) % | 36 (N = 4) % | 55 (N = 4) %
Cc1ccsc1C(=O)OC(C)C[N+](C)(C)C1CCCCC1.[I-] (stereo not drawn) [Example 37, N,N-Dimethyl-N-[2-((3-methylthiophene-2-carbonyl)oxy)propyl] cyclohexanaminium iodide] | – | 15 (N = 4) % | 20 (N = 4) % | 31 (N = 4) % | 70 (N = 4) %
Cc1cccc(C)c1C(=O)OCC[N+](C)(C)C1CCCCC1.[I-] [Example 40, N-[2-((2,6-Dimethylbenzoyl)oxy)ethyl]-N,N-dimethylcyclo-hexanaminium iodide] | – | 10 (N = 4) % | 12 (N = 4) % | 43 (N = 4) % | 80 (N = 4) %
CCc1ccccc1C(=O)OC(C)C[N+](C)(C)C1CCCCC1.[I-] (stereo not drawn) [Example 44, N-[2-((2-Ethylbenzoyl)oxy)propyl]-N,N-dimethylcyclo-hexanaminium iodide] | – | 56 (N = 4) % | 81 (N = 4) % | 89 (N = 4) % | 96 (N = 4) %

The next lines start with results.

IC50 [µM] | SMILES | hTRPV1-N1E Nav 0.1 mM (% inhibition) 25° C. | hTRPV1-N1E Nav 1 mM (% inhibition) 25° C. | hTRPV1-N1E Nav 0.1 mM (% inhibition) 47° C. | hTRPV1-N1E Nav 1 mM (% inhibition) 47° C.
10 to 100 | CC(C[N+](C)(C)C1CCCCC1)OC(=O)c1cc2ccccc2s1.[I-] (stereo not drawn) [Example 35, N-[2-((Benzo[b]thiophene-2-carbonyl)oxy)propyl]-N,N-dimethyl-cyclohexanaminium iodide] | 35 (N = 4) % | – | 74 (N = 4) % | –
10 to 100 | Cc1cccc(C)c1C(=O)OC(C)C[N+](C)(C)C1CCC(C)CC1.[I-] (stereo not drawn) [Example 36, N-[2-((2,6-Dimethylbenzoyl)oxy)propyl]-N,N,4-trimethylcyclo-hexanaminium iodide] | 50 (N = 4) % | 84 (N = 4) % | 83 (N = 4) % | 95 (N = 4) %
10 to 100 | Cc1cc(C)c(C(=O)OCC[N+](C)(C)C2CCCCC2)c(C)c1.[I-] [Example 41, N-[2-((2,4,6-Trimethylbenzoyl)oxy)ethyl]-N,N-dimethylcyclo-hexanaminium iodide] | 13 (N = 4) % | 22 (N = 4) % | 66 (N = 4) % | 89 (N = 4) %
10 to 100 | Cc1ccc(C(=O)OC(C)C[N+](C)(C)C2CCCCC2)cc1.[I-] (stereo not drawn) [Example 42, N,N-Dimethyl-N-[2-((4-methylbenzoyl)oxy)propyl] cyclohexanaminium iodide] | 8 (N = 4) % | 16 (N = 4) % | 45 (N = 4) % | 90 (N = 4) %
10 to 100 | CC(C)(C)c1ccc(C(=O)OCC[N+](C)(C)C2CCCCC2)cc1.[I-] [Example 43, N-[2-((4-(tert-butyl)benzoyl)oxy)ethyl]-N,N-dimethylcyclo-hexanaminium iodide] | 13 (N = 4) % | – | 78 (N = 4) % | –
10 to 100 | Cc1ccc(C(=O)OC(C)C[N+](C)(C)C2CCCCC2)c(C)c1.[I-] (stereo not drawn) [Example 45, N-[2-((2,4-Dimethylbenzoyl)oxy)propyl]-N,N-dimethylcyclo-hexanaminium iodide] | 4 (N = 4) % | 46 (N = 4) % | 72 (N = 4) % | 83 (N = 4) %
